Reference: patent US20110294952A1, “Optimized Drug Conjugates” (SynDevRX, priority 2010, published 2011)
In brackets after ≈: the same amount, converted by molar mass.

Tests used:
[1] = test system: A549 cells vs HUVEC cells; assay: A549/HUVEC selectivity; format: cell-based, human; conditions: ratio of IC50 values
[2] = Aqueous stability of carbamoylfumagillol in buffer; format: physicochemical; conditions: for Natural Rate Constant: 37° C., 5 μM
Method: At the appropriate time points, a 50 μL sample was withdrawn and diluted with three volumes of methanol containing propranolol as an internal standard (one solution was made for the entire study). The concentration of carbamoylfumagillol in the solution was analyzed by LC/MS/MS over seven days.

HCT-116 cells = assay: HCT-116 human colon tumor cell viability assay (CellTiter-Glo); format: cell-based; conditions: small molecules, 72 hours, read-out: HCT116 IC50 Average
Method: (§1) Test compounds, small molecules or polymer conjugates, were dissolved in dimethyl sulfoxide to a stock concentration of 5 mg/mL. The test agents were then diluted to an intermediate concentration at 200 μg/mL in 10% DMSO. Further dilutions were completed serially 3-fold in 10% DMSO to produce 12 decreasing concentrations for in-vitro analysis. To achieve the target concentrations of the in-vitro assays, 1 μL of the intermediate drug preparation was delivered to the cells (seeded in a volume of 50 μL). The final DMSO concentration for the tests was 0.2% for all doses of test agent.
(§2) Data are expressed as the percent cell growth of the untreated (vehicle) control calculated from the luminescence signals. The surviving fraction of cells is determined by dividing the mean luminescence values of the test agents by the mean luminescence values of untreated control. The inhibitory concentration value for the test agent(s) and control were estimated using Prism 5 software (GraphPad Software, Inc.) by curve-fitting the data using the non-linear regression analysis.
The human tumor cell lines A549 and HCT-116 were obtained from American Type Culture Collection (Manassas, Va.). […]
Cells were exposed to twelve increasing concentrations of formulated test agent from 2.3×10^−6 to 4.02 μg/mL for 72 hours. […] After incubation, luminescence was recorded using the Molecular Devices AnalystGT multi-mode reader.

HUVEC cells = assay: Human umbilical vein epithelial cell viability assay (CellTiter-Glo); format: cell-based; conditions: small molecules, 72 hours
Method: as §1, §2
The Human umbilical vein epithelial cells (HUVEC) were obtained from Lonza (Basel, Switzerland). […]
HUVEC cells were seeded at 1000 cells per well 24 hours prior to test agent exposure in a volume of 50 μL. […] After incubation, luminescence was recorded using the Molecular Devices AnalystGT multi-mode reader.

A549 cells [3] = assay: A549 human non-small cell lung carcinoma cell viability assay (CellTiter-Glo); format: cell-based; conditions: small molecules, 72 hours
Method: as §1
Cells were exposed to twelve increasing concentrations of formulated test agent from 2×10^−6 to 4.0 μg/mL for 72 hours. Following 72 hour exposure, 25 μL it of CellTiter-Glo® Reagent was added to each well. The plates were incubated for 60 minutes at 37° C. in a humidified incubator. After incubation, luminescence was recorded using the Molecular Devices AnalystGT multi-mode reader.
Data are expressed as the percent cell growth of the untreated (vehicle) control calculated from the luminescence signals. The surviving fraction of cells is determined by dividing the mean luminescence values of the test agents by the mean luminescence values of untreated control. […]

[4] = In vivo pharmacokinetics of polymer conjugate; design: species or system Sprague-Dawley rats; conditions: SDX-7539 single bolus IV 30 mg/kg, rat plasma
Method: FIG. 6 is a graph showing the plasma concentration of the active metabolite, SDX-7539, as a function of time in Sprague-Dawley rats, to which either the polymer conjugate SDX-7320 (single bolus, intravenous injection, 200 mg/kg) or the small molecule SDX-7539 (single bolus, intravenous injection, 30 mg/kg) has been administered.
The polymer conjugate, SDX-7320, or the in vivo release product, SDX-7539 were administered to Sprague-Dawley rats (N=3). Blood was collected over 48 hours after dosing to determine the plasma concentration of SDX-7539 by LC-MS/MS. The LLOQ for SDX-7539 was 2.5 nM. The terminal elimination half-life for SDX-7539 was estimated by fitting a linear regression to the ln [SDX-7539] versus time data. […] Cmax for the polymer is about 2% of the value for the small molecule.

A549 cells [5] = format: in vitro ADME, human
Method: Cells were treated as in Example 51 except that at the end of 72 hour exposure to test agent, the cells were frozen (−70° C.) and stored for subsequent evaluation by LC/MS.

CO[C@@H]1[C@H](OC(N)=O)CC[C@]2(CO2)[C@H]1[C@@]1(C)O[C@@H]1CC=C(C)C [Compound O-7127-1, Carbamoylfumagillol]
A549/HUVEC IC50 ratio [1]: 33.63
Natural Rate Constant ([2]; pH 4.0 sodium acetate buffer): 0.0054 h⁻¹
Natural Rate Constant ([2]; pH 5.3 sodium acetate buffer): 0.0017 h⁻¹
decomposition over the seven day period ([2]; pH 5.3 to 8.0, 37° C., seven days): less than 20%
Natural Rate Constant ([2]; pH 6.7 potassium phosphate buffer): 0.0010 h⁻¹
Natural Rate Constant ([2]; pH 8.0 potassium phosphate buffer): 0.0011 h⁻¹

CO[C@@H]1[C@H](OC(=O)N[C@@H](C(N)=O)C(C)C)CC[C@]2(CO2)[C@H]1[C@@]1(C)O[C@@H]1CC=C(C)C [Compound O-7177, PPI-2458]
IC50 (HCT-116 cells): 0.236 ng/mL (≈ 0.556 nM)
IC50 (HUVEC cells): 0.101 ng/mL (≈ 0.238 nM)
IC50 (A549 cells [3]): 0.215 ng/mL (≈ 0.506 nM)

CO[C@@H]1[C@H](OC(=O)NC2CCC(N)CC2)CC[C@]2(CO2)[C@H]1[C@@]1(C)O[C@@H]1CC=C(C)C (stereo partly drawn) [SDX-7539]
Cmax [4]: ~15 µM
half-life of SDX-7539 [4]: 10 to 15 min

poly[HPMA-co-MA-GFLG-N-(6-aminohexyl)carbamoylfumagillol]
metabolites identified from treated cells (A549 cells [5]): N-(6-aminohexyl)carbamoylfumagillol, fumagill-6-yl {6-[(aminoacetyl)amino]hexyl}carbamate, and the epoxide hydrolysis product, (3S,7aR)-7a-(hydroxymethyl)-4-methoxy-3-methyl-2-(3-methylbut-2-en-1-yl)octahydro-1-benzofuran-3-ol-5-yl 6-aminohexyl carbamate
